Measured values as given in patent publication US9456589B2, “Elasmobranch-repelling compounds and methods of use” (priority 2005, dated 2016).
Where two headings read alike, the source gives them in different places.

Columns and labels:
[1] = tested on: juvenile lemon and nurse sharks; experiment: Tonic immobility, Micropipette Assay, summary over species; assay type: in vivo; settings: for Micropipette Y (termination of tonic immobility), trials of trials: juvenile lemon and nurse sharks, oral dose
Experimental: (§1) One bioassay used to observe and measure flight response is the tonic immobility test. Tonic immobility is a state of paralysis that typically occurs when a shark is subject to inversion of its body along the longitudinal axis. This state is called “tonic,” and the shark can remain in this state for up to 15 minutes thereby allowing researchers to observe effects of chemical repellents. The “tonic” state of the shark is first established by releasing seawater in proximity to the “tonic” shark with the same delivery instrument and at the same distance as a “test” repellent compound will be released. Some controls are released with a high flow rate (30 mL/sec) in order to establish that sharks are not awakened by a jet of fluid over their noses. Once behavioral controls are established, a compound or composition that may have a repelling effect is delivered to the shark. If the compound or composition engenders a flight response, the shark will awaken from the tonic state and rapidly attempt to flee the delivered repellent. Using this tonic immobility bioassay researches can quantify the strength of a repellent effect.
(§2) A fourth method of delivery was called the “Micropipette Assay” method of delivery. In this method, a very small dose (fraction of a mL) of a test substance was delivered directly into a shark's mouth. […] A response, such as a cough or other notable action of the shark, was usually noted when effective gustatory repellents were delivered directly into a shark's mouth while in tonic immobility.
(§3) The Micropipette Assay method has not proven to be a particularly effective method of assaying for a flight response in elasmobranchs. The Micropipette Assay method is, nevertheless, an excellent method for specifying that a gustatory response has occurred. It is effective for specifying a gustatory response because the micropipette delivery method allows direct delivery of an entire bolus of test substance into the mouth of the shark being tested.
An oral dose of no more than 400 microliters was then delivered by micropipette into the mouth of a juvenile nurse shark. Tonic immobility was terminated. For each derivative of butyric acid and each naturally occurring acid listed in Table 9, a first micropipette assay was performed on a juvenile lemon shark with no more than 100 microliters of test acid in an oral dose. A second micropipette assay was then performed on a juvenile nurse shark with no more than 400 microliters of test acid in an oral dose. In each test, tonic immobility was terminated.
In a first set of studies on the effectiveness of carboxylic acids as elasmobranch repellents, each tested substance was subjected to the following protocol. […] An oral dose of no more than 400 microliters was then delivered by micropipette into the mouth of a juvenile nurse shark. Tonic immobility was terminated. […] The data evidences the gustatory repelling activity of carboxylic acids.

[2] = tested on: blacktip sharks; experiment: Tonic immobility, Syringe 3/5/10 Assay; assay type: in vivo, C. limbatus
Experimental: as §1
(§4) In the tonic immobility studies disclosed herein, several different methods were employed for delivery of repelling compounds. A first method for delivery of chemical repellent in tonic immobility studies employed a “Syringe 3/5/10 Assay” method. The “Syringe 3/5/10 Assay” method is so named because a test repellent is delivered to a shark from a distance of about “3” inches with a bolus of about “5” mL with a response to the test repellent considered positive if the shark reacts with a change in behavior within less than about “10” seconds from the time of delivery.
(§5) The “3/5/10 Syringe Assay” as employed herein delivered a dose of 5-6 mL of a test chemical repellent from a syringe fixed with a needle having a gauge of about 22 from a distance at least 3 inches in front of a shark. Because the test chemical repellent was delivered at a distance from the shark's nares and mouth, a cloud of test chemical repellent was dispersed over the shark within the water column. The dispersed test repellent was subject to water current direction, dispersion and dilution. As a result, a flight response within 10 seconds was considered a positive repellency response. […] Time from delivery to response is related to the size of the bolus delivered from the syringe, distance of the shark from the syringe and water current.
(§6) Lemon, nurse, blacktip and tiger sharks were placed in tonic immobility by inverting the shark's body along its longitudinal axis. […] The “tonic” state of each shark was first established by releasing a control of seawater in proximity to the shark with the same delivery instrument and at the same distance as the chemical repellent would later be delivered. In certain controls, sea water was released with a high flow rate (30 mL/sec) in order to establish that the sharks would not be awakened by a jet of fluid over their noses.
(§7) Once behavioral controls were established, the chemical repellent was delivered to the shark using the Hd Syringe Assay method, the Syringe 3/5/10 Assay method, the Bite Assay method or the Micropipette Assay method. […] If tonic immobility was terminated, the positive response was denoted as “Y.” If tonic immobility was not terminated but a behavior change within tonic immobility was noted, such as the opening of the mouth or a cough, the response was denoted as an “R” for reduced response. If no behavior change was observed, the negative response was denoted “N.”
In Syringe 3/5/10 Assays, 5-6 mL of 3-methylbutanal was delivered at least 3 inches in front of the shark's mouth. A cloud of the repellent dispersed over the shark within the water column. […] As noted above, because the dispersion of the chemical repellent upon delivery is affected by volume of repellent, water current, and other factors, the time between delivery and response was not correlatable with the potency of the repellent. […]

[3] = tested on: nurse sharks; experiment: Tonic immobility, Syringe 3/5/10 Assay; assay type: in vivo, C. cirratum; settings: Table 24; nurse shark; syringe 3/5/10 delivery; 6 ml; mouth
[4] = tested on: sharks (lemon, nurse, tiger pooled); experiment: Tonic immobility, Hd Syringe Assay, summary over species; assay type: in vivo; settings: species pooled
Experimental: as §1
In Hd-Syringe Assays, the 3-methylbutanal was delivered to the shark's mouth and nares using a 3 mL hypodermic syringe fitted with a 22 gauge needle. The needle was held within 3 inches of the shark's mouth and the test repellent was slowly released from the syringe with a very fine plume in the water column. Any response was denoted. If a response occurred during a measurable time after delivery of the test chemical, the time between delivery and response was noted. If a response occurred immediately or the response occurred before a measurable time could be established, no time to response was noted.

[5] = tested on: lemon sharks; experiment: Tonic immobility, Hd Syringe Assay; assay type: in vivo, N. brevirostris; settings: lemon sharks
Experimental: as §1, §6
Once behavioral controls were established, the chemical repellent was delivered to the shark using the Hd Syringe Assay method, the Syringe 3/5/10 Assay method, the Bite Assay method or the Micropipette Assay method. […]

[6] = tested on: Caribbean reef sharks; experiment: Cloud dispersion assay (cloud - co2); assay type: in vivo, C. perezii; settings: for Comments (effect on shark population): cloud, 500 mL
Description: Another bioassay used to observe a flight response in sharks is a cloud dispersion assay on competitively feeding population of sharks. This assay is referred to as a “Cloud Dispersion Assay” or “Cloud Assay.” A pressurized fluid delivery system was designed to deliver repellent into large feeding populations of sharks. The repellent is released as a subsurface cloud, which follows the current. A 1 L plastic container containing the test chemical repellent solution is pressurized to approximately 20 psig with a battery compressor or hand pump. A globe valve is used to hold back the fluid. The fluid is delivered to the end of a long PVC pole using a Teflon tubing. This allows the operator to place the tip of the pole well into a population of feeding sharks. By actuating the small globe valve, a cloud of the chemical solution is released quickly and reliably into the feeding population. Controls are established using FD&C Red 40 dye and seawater, uncolored seawater, and air. These controls establish that sharks are not afraid to approach the delivery pole, nor are sharks deterred from feeding by the jet of control fluid or air.
Syringe 3/5/10, Hd Syringe and Micropipette assays were carried out as described in Examples 1 and 2.

[7] = tested on: sharks (lemon, nurse, blacktip, tiger, blacknose pooled); experiment: Tonic immobility, Syringe 3/5/10 Assay, summary over species; assay type: in vivo
Experimental: as §1, §4, §5
In Syringe 3/5/10 Assays, 5-6 mL of 3-methylbutanal was delivered at least 3 inches in front of the shark's mouth. A cloud of the repellent dispersed over the shark within the water column. […] As noted above, because the dispersion of the chemical repellent upon delivery is affected by volume of repellent, water current, and other factors, the time between delivery and response was not correlatable with the potency of the repellent.

[8] = tested on: nurse sharks; experiment: Tonic immobility, Micropipette Assay; assay type: in vivo, C. cirratum
Experimental: as §1, §2
as §3, with “tested. […]” for “tested.”

[9] = tested on: juvenile sharks; experiment: Initial tonic immobility assays, mouth delivery by micropipette or syringe; assay type: in vivo; settings: introduced to the mouth using a micropipette or syringe
[10] = tested on: nurse sharks; experiment: Tonic immobility, Hd Syringe Assay; assay type: in vivo, C. cirratum; settings: juvenile nurse shark
Experimental: as §1
Lemon, nurse, blacktip and tiger sharks were placed in tonic immobility by inverting the shark's body along its longitudinal axis. […]

[11] = tested on: lemon sharks; experiment: Tonic immobility, Micropipette Assay; assay type: in vivo, N. brevirostris; settings: juvenile lemon shark, micropipette
Experimental: as §1, §2, §3
Using a microliter syringe or microliter pipette, a bolus of test chemical can be directed precisely into one of the shark's nares, or its mouth. […] Olfactory repellents will terminate tonic immobility almost immediately when injected into a nare of the shark.
as §6, §7
Further because the Micropipette assays were often done serially on the same set of sharks, second and third doses of the repellent over time would be expected to evoke less of a reaction. Nevertheless, the small doses delivered to the shark in the Micropipette assay provide important data on whether a compound is a gustatory stimulant because the small dose may be delivered directly into the mouth of the shark. This eliminates any olfactory response that might be acting in concert with a gustatory response to terminate tonic immobility.

[12] = listed as crotonic acid solution

## O=C(O)CC(O)(CC(=O)O)C(=O)O [Citric acid 50% w/w, Citric acid]
[1]
  Micropipette Y (termination of tonic immobility), trials of trials: 2/2
[2]; Table 24, blacktip shark, syringe 3/5/10 delivery, 6 ml, mouth longline
  T? (termination of tonic immobility): Y
[3]
  T? (termination of tonic immobility): R
[4]
  Hd-Syringe Y (termination of tonic immobility), trials of trials: 4/4
[5]
  Hd Syringe assays terminating tonic immobility: four of four

## Cc1cccnc1N [2-amino-3-picoline]
[6]; cloud - co2, 500 mL
  T?: Y
[6]
  Comments (effect on shark population): population decreased
[6]; listed as 2-amino-3-picoline 95% cut to 10% w/w with desalinated water
  Comments (effect on shark population): population decrease

## CC=CC(=O)O [crotonic acid solution (2-butenoic acid), 2-butenoic acid]
[1]
  Micropipette Y (termination of tonic immobility), trials of trials: 2/2
[1]; lemon and nurse sharks
  screening result: shark repelling compounds
[3]
  T? (termination of tonic immobility): Y and R
[7]
  Syringe 3/5/10 N (no response), trials of trials: 2/7
  Syringe 3/5/10 R (behavior response within tonic immobility), trials of trials: 1/7
  Syringe 3/5/10 Y (termination of tonic immobility), trials of trials: 4/7
[7]; [12]
  Syringe 3/5/10 N (no response), trials of trials: two of the seven
  Syringe 3/5/10 R (behavior response within tonic immobility), trials of trials: one of the seven
  Syringe 3/5/10 Y (termination of tonic immobility), trials of trials: four of the seven

## c1ccncc1 [Pyridine, pyridine]
[8]; nurse shark, about 500 microliters into the mouth
  Micropipette assay outcome: did not evoke a response
[9]
  result of initial tonic immobility assays: terminated tonic immobility
[7]
  Syringe 3/5/10 R (behavior response within tonic immobility), trials of trials: 1/4
  Syringe 3/5/10 Y (termination of tonic immobility), trials of trials: 3/4
[7]; listed as pyridine
  Syringe 3/5/10 R (behavior response within tonic immobility), trials of trials: one of four
  Syringe 3/5/10 Y (termination of tonic immobility), trials of trials: three of four

## Cc1c(N)c(=O)n(-c2ccccc2)n1C [4-aminoantipyrine]
[2]; blacktip sharks
  Syringe 3/5/10 assays with no response: no response
[10]
  Hd Syringe assays terminating tonic immobility: terminated
[4]
  Hd-Syringe Y (termination of tonic immobility), trials of trials: terminated tonic immobility in all tests
[4]; listed as 4-amino-antipyrine
  Hd-Syringe Y (termination of tonic immobility), trials of trials: five of five
[4]; listed as 4-amino-antipyrine (metapirazone)
  Hd-Syringe Y (termination of tonic immobility), trials of trials: 5/5
[5]
  Hd Syringe assays terminating tonic immobility: all assays terminated tonic immobility

## CCCC(=O)O [n-Butyric Acid, n-butyric acid]
[1]
  Micropipette Y (termination of tonic immobility), trials of trials: 2/2
[1]; listed as butyric acid
  Micropipette Y (termination of tonic immobility), trials of trials: termination of tonic immobility
[1]; juvenile lemon or nurse sharks
  mouth dose at which tonic immobility was terminated: 100 µL
[8]; juvenile nurse shark, micropipette
  oral dose that terminated tonic immobility: no more than 400 microliters
[11]
  oral dose that terminated tonic immobility: no more than 100 microliters
